Measurements from US20100047221A1, “COMPOSITIONS COMPRISING PYRUVATE ALKYL ESTERS AND USES THEREOF” (priority 2006, published 2010).

What was measured:
[1] = Gastric reflux (heartburn) in the taste assessment experiment; type: in vivo, human; conditions: panel of 10 individuals; about 30 ml liquid composition, oral
Experimental: (§1) A panel of 10 individuals ingested a liquid composition (about 30 ml) at room temperature comprising ethylpyruvate (about 1 weight-percent) to provide a taste assessment. The panel was additionally provided a corresponding liquid composition of methylpyruvate (i.e., methyl ester of pyruvic acid) for comparative tasting. […] Without wishing to be bound by theory, it is believed that the sour taste associated with methylpyruvate results from hydrolysis of methylpyruvate within the sample to pyruvic acid, with the associated source taste of an acid. In contrast, the taste associated with ethylpyruvate appears to reflect a lack of hydrolysis to pyruvic acid in the sample.
In the taste assessment experiment (Example 2), gastric reflux (i.e., “heartburn”) was a considerable problem (i.e., 5 of 10 individuals reporting such) with methylpyruvate, but none reporting similar reaction with ethylpyruvate.

[2] = Stability in solution at room temperature, judged by appearance and taste; type: physicochemical; conditions: room temperature (about 50 to 90 degrees F.); judged by appearance (color) and taste
Text: Without wishing to be bound by theory, it is believed that methyl esters of pyruvic acid are more susceptible to hydrolysis in aqueous solution than are corresponding ethyl esters, which hydrolysis results in the production of pyruvic acid. Pyruvic acid, and the anion thereof, can then react by mechanisms well known in the art, to form a plethora of higher molecular compounds.

[3] = Athlete oral ingestion before and during daily workouts; type: in vivo, human; conditions: 12 athletes, 4x500 mL per day, about 0.06 weight-percent in water, four days
Experimental: A group of 12 athletes (19-22 years of age) self-administered oral ethylpyruvate in solution (4×500 mL ingested per day of a solution of about 0.06 weight-percent ethylpyruvate in water) before and during daily workouts (approximately 2 hours duration) for four days. The athletes having ingested oral ethylpyruvate reported less fatigue at the end of each workout, and similar favorable reports continued each day for the four days of practice.

[4] = Post-surgical oral ingestion by a patient with gastrointestinal inflammation; type: in vivo, human; conditions: about 3x500 mL per day
Experimental: The patient had developed gastrointestinal inflammation and could not tolerate food by mouth for several days post-operative. Furthermore, bowel movements were frequent, watery and bloody, and were accompanied by lower abdominal pain. The patient self administered oral ethylpyruvate (about 3×500 mL per day daily for 1 week of an ethylpyruvate solution in commercial bottled spring water at 0.06 weight-percent ethylpyruvate). Within 3 hours of the initial dosing, persistent pain, hyperactive bowel and diarrhea resolved. The patient additionally reported an improved mood following oral ingestion of ethylpyruvate.

[5] = Mood enhancement before and after ingestion in the taste assessment experiment; type: in vivo, human; conditions: about 1 weight-percent
Experimental: as §1
In the taste assessment experiment (Example 2), mood was assessed before and after ingestion of the liquid composition comprising ethylpyruvate. […] This mood enhancement commenced at between 5 and 15 minutes and lasted over 6 hours. In one case, the individual stated that the usual afternoon cup of coffee would not be necessary that day due to the ingestion of the composition.

Q: For `CCOC(=O)C(C)=O` [ethylpyruvate], which “individuals reporting gastric reflux (heartburn)” value [1] is on record?
A: none

Q: And the “stability in solution versus the methyl ester of pyruvic acid” value [2]?
A: higher stability

Q: What about the “performance in high-activity training regimens (wind sprints) versus sessions prior to ingestion” value ([3]; each subject) of the same compound?
A: better performance

Q: What about the “fatigue at the end of each workout” value [3] of the same compound?
A: less fatigue

Q: And the “time from initial dosing to resolution of persistent pain, hyperactive bowel and diarrhea” value ([4]; one patient after surgery and radiation for gastrointestinal carcinoma, 0.06 weight-percent in spring water)?
A: ≤ 3 h

Q: What about the “mood reported by the patient” value ([4]; one patient, 0.06 weight-percent, 1 week) of the same compound?
A: improved mood

Q: What about the “duration of mood enhancement” value ([5]; after ingestion of about 30 ml) of the same compound?
A: over 6 hours

Q: And the mood after ingestion ([5]; each of 10 individuals, about 30 ml, oral)?
A: increase in feelings of well-being and energy
